Our source for the EC50 and first-phase pharmacokinetic half-life values is US20250049765A1, “BICYCLO [3.2.0] HEPTANE BIS(AMIDE) RXFP1 AGONISTS” (BRISTOL-MYERS SQUIBB COMPANY, priority 2021, published 2025).

human RXFP1, sequence (Q9HBX9 whole entry): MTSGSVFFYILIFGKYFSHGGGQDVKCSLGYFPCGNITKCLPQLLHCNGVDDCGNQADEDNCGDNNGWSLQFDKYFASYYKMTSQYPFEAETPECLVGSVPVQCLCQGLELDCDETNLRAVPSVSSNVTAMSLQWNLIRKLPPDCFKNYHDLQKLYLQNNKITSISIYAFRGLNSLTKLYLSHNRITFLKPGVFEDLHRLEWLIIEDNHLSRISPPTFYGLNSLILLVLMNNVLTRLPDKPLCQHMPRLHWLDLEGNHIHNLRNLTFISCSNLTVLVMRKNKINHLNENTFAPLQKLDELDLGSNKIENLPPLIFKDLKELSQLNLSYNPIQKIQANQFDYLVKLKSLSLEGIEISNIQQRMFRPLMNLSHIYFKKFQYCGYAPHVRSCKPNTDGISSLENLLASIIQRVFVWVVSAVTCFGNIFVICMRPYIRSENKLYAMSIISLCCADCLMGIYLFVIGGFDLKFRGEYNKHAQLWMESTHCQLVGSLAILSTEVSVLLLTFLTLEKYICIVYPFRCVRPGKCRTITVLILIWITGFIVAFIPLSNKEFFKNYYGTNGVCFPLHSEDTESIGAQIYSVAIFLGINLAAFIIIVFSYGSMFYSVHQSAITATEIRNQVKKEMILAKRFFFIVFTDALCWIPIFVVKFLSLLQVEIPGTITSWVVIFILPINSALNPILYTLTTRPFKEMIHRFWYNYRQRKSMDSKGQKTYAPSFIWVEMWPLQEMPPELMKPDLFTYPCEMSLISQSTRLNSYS

For the first data set, the target named is human RXFP1 (Homo sapiens (Human), UniProt Q9HBX9). In words: hRXFP1 HEK293 cAMP assay. In kind it is cell-based. Conditions: HEK293 cells stably expressing human RXFP1; 30 min at room temperature; HTRF cAMP. As for the experimental part:
RXFP1 Cyclic Adenosine Monophosphate (CAMP) Assays. Human embryonic kidney cells 293 (HEK293) cells and HEK293 cells stably expressing human RXFP1, were cultured in MEM medium supplemented with 10% qualified FBS, and 300 μg/ml hygromycin (Life Technologies). Cells were dissociated and suspended in assay buffer. The assay buffer was HBSS buffer (with calcium and magnesium) containing 20 mM HEPES, 0.05% BSA, and 0.5 mM IBMX. Cells (3000 cells per well, except 1500 cell per well for HEK293 cells stably expressing human RXFP1) were added to 384-well Proxiplates (Perkin-Elmer). Cells were immediately treated with test compounds in DMSO (2% final) at final concentrations in the range of 0.010 nM to 50 μM. Cells were incubated for 30 min at room temperature. The level of intracellular cAMP was determined using the HTRF HiRange CAMP assay reagent kit (Cisbio) according to manufacturer's instructions. Solutions of cryptate conjugated anti-cAMP and d2 fluorophore-labelled cAMP were made in a supplied lysis buffer separately. Upon completion of the reaction, the cells were lysed with equal volume of the d2-cAMP solution and anti-cAMP solution. After a 1 h room temperature incubation, time-resolved fluorescence intensity was measured using the Envision (Perkin-Elmer) at 400 nm excitation and dual emission at 590 nm and 665 nm. A calibration curve was constructed with an external cAMP standard at concentrations ranging from 2.7 μM to 0.1 μM by plotting the fluorescent intensity ratio from 665 nm emission to the intensity from the 590 nm emission against cAMP concentrations. The potency and activity of a compound to […] cAMP production was then determined by fitting to a 4-parametric logistic equation from a plot of cAMP level versus compound concentrations.
The examples disclosed below were tested in the human RXFP1 (hRXFP1) HEK293 cAMP assay described above and found to have agonist activity. Table A lists EC50 values in the hRXFP1 HEK293 cAMP assay measured for the examples.
In general terms: Cyclic AMP is a second messenger, typically raised through Gs and lowered through Gi signalling.
What is called EC50 is the concentration that produces a half-maximal response. `COc1ccc(-c2cc(C(=O)O)ccc2F)cc1C(=O)N[C@H]1[C@@H]2CCC[C@@H]2[C@H]1C(=O)Nc1ccc(F)c(C(F)(F)F)c1` [Example 1, 6-fluoro-3′-(((1S,5R,6S,7R)-7-((4-fluoro-3-(trifluoromethyl)phenyl)carbamoyl)bicyclo[3.2.0]heptan-6-yl)carbamoyl)-4′-methoxy-[1,1′-biphenyl]-3-carboxylic acid] registered a concentration for a half-maximal effect (EC50) of 1.19 µM. Still for that read-out and setting: as for `COc1ccc(C#CCO)cc1C(=O)N[C@H]1[C@@H]2CCC[C@@H]2[C@H]1C(=O)Nc1ccc(F)c(C(F)(F)F)c1` [Example 2, (1R,5S,6R,7S)—N-(4-fluoro-3-(trifluoromethyl)phenyl)-7-(5-(3-hydroxyprop-1-yn-1-yl)-2-methoxybenzamido) bicyclo[3.2.0]heptane-6-carboxamide], the figure is 0.823 µM; as for `COc1ccc(C2=NOC3CC(O)CC23)cc1C(=O)NC1C2CCCC2C1C(=O)Nc1ccc(F)c(C(F)(F)F)c1` [Example 3, (1R,5S,6R,7S)-N-(4-fluoro-3-(tri-fluoromethyl)-phenyl)-7-(5-(5-hydroxy-3a,5,6,6a-tetrahydro-4H-cyclopenta[d]isox-azol-3-yl)-2-meth-oxybenzamido)-bicyclo[3.2.0] heptane-6-carbox-amide], 0.916 µM. In the case of `COc1ccc(C2=NOC(CO)C2)cc1C(=O)NC1C2CCCC2C1C(=O)Nc1ccc(F)c(C(F)(F)F)c1` [Example 5, (1R,5S,6R,7S)-N-(4-fluoro-3-(tri-fluoromethyl)-phenyl)-7-(5-(5-(hydroxymethyl)-4,5-dihydroisox-azol-3-yl)-2-meth-oxybenzamido)-bicyclo[3.2.0] heptane-6-carbox-amide], the EC50 stood at 2.23 µM. In turn, `COc1ccc(-c2cc(C(OC(=O)Nc3ccccc3)C(=O)O)ccc2F)cc1C(=O)N[C@H]1[C@@H]2CCC[C@@H]2[C@H]1C(=O)Nc1ccc(F)c(C(F)(F)F)c1` (stereo partly drawn) [Example 7, 2-(6-fluoro-3′-(((1S,5R,6S,7R)-7-((4-fluoro-3-(trifluoromethyl)phenyl)carbamoyl)bicyclo[3.2.0]heptan-6-yl)carbamoyl)-4′-methoxy-[1,1′-biphenyl]-3-yl)-2-((phenylcarbamoyl)oxy) acetic acid] showed an EC50 of 0.012 µM.

System in the next data set: not given
Assay: not given
The settings on record: intravenous (IV) formulation; cited from earlier work.
For the compound Serelaxin, the first-phase pharmacokinetic half-life is 5.4 min.
